Experimental findings from publication PMC8353992 (Journal of medicinal chemistry, 2021) are described below.

The target of the assay is SARS-CoV-2 3CL^pro (Severe acute respiratory syndrome coronavirus 2, UniProt P0DTD1). The class given is biochemical.

For `O=C(Cc1cccnc1)N(Cc1cccc(Cl)c1)c1ccc(-c2cn[nH]c2)cc1` [Compound 42, N-[(3-Chlorophenyl)methyl]-N-[4-(1H-pyrazol-4-yl)phenyl]-2-(3-pyridyl)acetamide], the primary biochemical potency entry was “micromolar levels”. Regarding `O=C(Cc1cncnc1)N(Cc1cccc(Cl)c1)c1ccc(-c2cn[nH]c2)cc1` [Compound 43, N-[(3-Chlorophenyl)methyl]-N-[4-(1H-pyrazol-4-yl)phenyl]-2-pyrimidin-5-yl-acetamide], the primary biochemical potency entry is listed as “micromolar levels”.
